Test results from patent publication EP0363589A2, “Somatostatin analogues” (SYNTEX (U.S.A.) INC., priority 1988, dated 1990).

Legend:
[1] = test system: growth hormone; assay: Nembutal-induced growth hormone assay; type: in vivo, male rats; conditions: derived from the growth hormone and insulin assays in rats
Description: After several days of acclimatization, male rats were weight-grouped and used on the succeeding one to three days. The rats were fasted the day prior to use. Each test rat was given an intramuscular (IM) injection of test compound or vehicle (0.1 % BSA-saline) into the right rear leg.
Immediately following the IM injection, a subcutaneous injection of Nembutal (60 mg/kg) was given. Thirteen minutes after Nembutal administration, each rat was exposed to 2 minutes of ether anesthesia followed by the collection of a 1 ml blood sample via the ocular orbit. Serum separator tubes were used to prepare serum from the blood samples. The serum samples were stored at -20°C until analysis by radioimmune assay. The mean percent inhibition of growth hormone was determined for the test compounds using the method as described in Examples 4 and 5 and the EDso derived.

[2] = test system: insulin-induced glucagon release; assay: Insulin-induced glucagon assay; type: in vivo; conditions: derived from the glucagon and insulin assays in rats
Description: After several days of acclimatization, rats were weigh-grouped and used on the succeeding one to three days. The rats were injected subcutaneously with 40 mg/kg pentobarbitol(Nembutal). Approximately 30 minutes after injection, the jugular and the hepatic portal veins were exposed and an injection of 0.1% bovine serum albumin (BSA)-saline vehicle or 1 IU/1 ml/kg porcine insulin in the same vehicle was administered into the jugular vein. At precisely 15 minutes after the intravenous (i.v.)injection a 1 ml blood sample was collected from the hepatic portal vein and the rat sacrificed with C02.
The blood sample was collected into a syringe containing 0.70 mg Na-EDTA and 0.1 mg Aprotinin, a commercially available protease inhibitor, in 0.1 ml 0.9% saline. The blood sample was mixed in the syringe and transferred to a plastic microcontainer serum-separator tube and held in the dark on ice. Plasma was harvested within 6 hours by centrifugation and stored at -20°C. The test material was administered intramuscularly to the animal immediately prior to the i.v. injection of insulin. Plasma samples were analyzed for levels of glucagon using a commercially available radioimmuneassay kit for animal glucagon (Cambridge Medical Technology). […]

## Sandostatin
[1]
  Relative selectivities for growth hormone/insulin: 103
[2]
  Relative selectivities for glucagon/insulin: 11
